Patent US20240116985A1, “STAPLED PEPTIDES AND METHODS THEREOF” (priority 2020, published 2024)
Like-named read-outs stand apart in the source and are kept apart here.

Assays:
[1] = biological target: T1, beta-catenin/TCF4 engagement (Homo sapiens, UniProt P35222); assay: Nano-BRET target engagement assay (B-cat-Halo & TCF4-Luc in HEK293 cells); format: cell-based
T1 construct: expressed in transfected cells; host or cells: HEK293
T1 sequence (P35222 1-781): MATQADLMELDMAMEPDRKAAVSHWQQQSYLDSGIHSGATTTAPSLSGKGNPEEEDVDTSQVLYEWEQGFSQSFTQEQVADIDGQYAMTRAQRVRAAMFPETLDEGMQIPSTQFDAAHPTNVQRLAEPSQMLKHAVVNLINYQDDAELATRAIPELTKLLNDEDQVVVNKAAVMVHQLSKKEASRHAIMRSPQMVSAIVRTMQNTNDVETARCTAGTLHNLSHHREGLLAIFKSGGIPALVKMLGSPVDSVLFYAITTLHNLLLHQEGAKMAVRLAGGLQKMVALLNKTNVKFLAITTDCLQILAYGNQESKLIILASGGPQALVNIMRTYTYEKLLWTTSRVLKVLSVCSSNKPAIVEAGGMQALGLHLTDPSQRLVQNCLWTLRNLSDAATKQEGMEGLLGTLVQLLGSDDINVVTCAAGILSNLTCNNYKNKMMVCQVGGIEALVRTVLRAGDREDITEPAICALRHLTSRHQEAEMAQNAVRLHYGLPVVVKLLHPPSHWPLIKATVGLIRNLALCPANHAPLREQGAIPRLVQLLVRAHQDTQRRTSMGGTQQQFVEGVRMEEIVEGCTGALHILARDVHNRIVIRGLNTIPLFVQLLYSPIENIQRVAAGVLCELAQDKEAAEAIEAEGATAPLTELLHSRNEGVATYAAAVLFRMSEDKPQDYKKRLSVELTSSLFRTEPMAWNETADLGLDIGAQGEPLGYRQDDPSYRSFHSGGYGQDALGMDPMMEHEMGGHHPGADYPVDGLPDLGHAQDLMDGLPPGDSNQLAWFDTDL

[2] = system: TCF/LEF luciferase Reporter in DLD1 cells; assay: TCF reporter assay (DLD1 TCF/LEF luciferase reporter, Bright-Glo); format: cell-based; details: read-out: DLD1 4% Abs IC50
Procedure, shortened: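 DLD1 cells stably carrying a TCF/LEF luciferase reporter were plated at 5000 cells/well in RPMI + 4% FBS and treated overnight with a 1:2 compound dilution series. Bright-Glo luminescence read on day 3; viability by CellTiter-Glo. Absolute IC50 determined.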

COLO320DM cells = format: cell-based; details: COLO320DM cells, read-out: COLO320DM Proliferation Abs IC50
Procedure, shortened: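 COLO320DM cells at 250 cells/well in RPMI-1640 + 4% HI FBS, dosed after 18–22 h with a 7-point […] 1/2 dilution series from 20 uM down to 313 nM.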

[3] = biological target: T2, full-length beta-Catenin (Uniprot ID P35222) (Homo sapiens, UniProt P35222); assay: Fluorescence polarization IC50 (beta-catenin / 5FAM-TCF4 10-53 competition); format: binding; details: fluorescence polarization; read-out: beta-Catenin FP IC50
T2 construct: 10 nM full-length beta-Catenin (Uniprot ID P35222)
T2 sequence (P35222 1-781): T1 sequence (P35222 1-781)

[4] = DLD1 reporter, 4%, absolute IC50
[5] = absolute IC50, read-out: NanoBRET Abs IC50

## CC(=O)N1CCC[C@]12CC=CCCCC1(CCCC=CCCCOC(=O)N3CC[C@@](C(=O)N[C@@H](Cc4ccsc4)C(=O)N[C@@H](Cc4csc5ccccc45)C(=O)N[C@@H](CC(N)=O)C(=O)N[C@@H](CC(C)C)C(=O)N[C@@H](CC(C)C)C(=O)N[C@@H](CC(C)C)C(=O)N[C@@H](CC(C)C)C(=O)N[C@@H](CC(C)C)C(N)=O)(C3)NC(=O)[C@H](CC(C)C)NC(=O)[C@H](Cc3ccccc3)NC(=O)[C@H](C)NC(=O)[C@H](C)NC(=O)[C@H](Cc3cccc(C(=O)O)c3)NC(=O)[C@H](CC(=O)O)NC1=O)NC(=O)[C@H](CC(C)(C)C)NC(=O)[C@H](CC(=O)O)NC2=O (single isomer, unassigned) [I-2280, Ac-PL3-Asp-Npg-B5-Asp-3COOHF-Ala-Ala-Phe-Leu-PyrS2-3Thi-BztA-Asn-Leu-Leu-Leu-Leu-Leu-NH2]
[1]; NanoBRET Abs IC50 (uM), absolute IC50
  IC50: > 20 µM
[2]; [4]
  IC50: > 20000 nM
COLO320DM cells; absolute IC50
  IC50: > 20000 nM

## CC(=O)N1CCC[C@]12CC=CCCCC1(CCCC=CCCCOC(=O)N3CC[C@@](C(=O)N[C@@H](Cc4ccsc4)C(=O)N[C@@H](Cc4csc5ccccc45)C(=O)N[C@@H](CCC(N)=O)C(N)=O)(C3)NC(=O)[C@H](CC(C)C)NC(=O)[C@H](Cc3ccccc3)NC(=O)[C@H](C)NC(=O)[C@H](C)NC(=O)[C@H](Cc3cccc(C(=O)O)c3)NC(=O)[C@H](CC(=O)O)NC1=O)NC(=O)[C@H](CC(C)(C)C)NC(=O)[C@H](CC(=O)O)NC2=O (stereo partly drawn) [I-1462, Ac-PL3-Asp-Npg-B5-Asp-3COOHF-Ala-Ala-Phe-Leu-PyrS2-3Thi-BztA-Gln-NH2]
[3]
  IC50: 8 nM
[1]; [5]
  IC50: 2.3 µM
[2]; [4]
  IC50: 2700 nM
COLO320DM cells; absolute IC50
  IC50: 8400 nM

## CC(=O)N1CCC[C@]12CC=CCCCC1(CCCC=CCCCOC(=O)N3CC[C@@](C(=O)N[C@@H](Cc4ccccc4Cl)C(=O)N[C@@H](Cc4csc5ccccc45)C(=O)N[C@@H](CC(N)=O)C(=O)N[C@@H](C)C(=O)N[C@@H](C)C(=O)N[C@H](C)C(N)=O)(C3)NC(=O)[C@H](CC(C)C)NC(=O)[C@H](Cc3ccccc3)NC(=O)[C@H](C)NC(=O)[C@H](C)NC(=O)[C@H](Cc3cccc(C(=O)O)c3)NC(=O)[C@H](CC(=O)O)NC1=O)NC(=O)[C@H](CC(C)(C)C)NC(=O)[C@H](CC(=O)O)NC2=O (stereo partly drawn) [I-2041, Ac-PL3-Asp-Npg-B5-Asp-3COOHF-Ala-Ala-Phe-Leu-PyrS2-2C1F-BztA-Asn-Ala-Ala-dAla-NH2]
[3]
  IC50: 16 nM
[1]; read-out: NanoBRET Abs IC50
  IC50: 2.3 µM
[2]; DLD1 4%
  IC50: 1900 nM
COLO320DM cells
  IC50: > 20000 nM

## CC(=O)N1CCC[C@]12CC=CCCCC1(CCCC=CCCCOC(=O)N3CC[C@@](C(=O)N[C@@H](Cc4ccsc4)C(=O)N[C@@H](Cc4csc5ccccc45)C(=O)N[C@@H](CC(N)=O)C(N)=O)(C3)NC(=O)[C@H](CC(C)C)NC(=O)[C@H](Cc3ccccc3)NC(=O)[C@H](C)NC(=O)[C@H](C)NC(=O)[C@H](Cc3cccc(C(=O)O)c3)NC(=O)[C@H](CC(=O)O)NC1=O)NC(=O)[C@H](CC(C)(C)C)NC(=O)[C@H](CC(=O)O)NC2=O (stereo partly drawn) [I-2043, Ac-PL3-Asp-Npg-B5-Asp-3COOHF-Ala-Ala-Phe-Leu-PyrS2-3Thi-BztA-Asn-NH2]
[3]
  IC50: 8 nM
[1]; read-out: NanoBRET Abs IC50
  IC50: 2.8 µM
[2]; DLD1 4%
  IC50: 1000 nM
COLO320DM cells
  IC50: 15200 nM

## CC(=O)N1CCC[C@]12CC=CCCCC1(CCCC=CCCCOC(=O)N3CC[C@@](C(=O)N[C@@H](Cc4ccccc4C(F)(F)F)C(=O)N[C@@H](Cc4csc5ccccc45)C(=O)N[C@@H](C)C(N)=O)(C3)NC(=O)[C@H](CC(C)C)NC(=O)[C@H](Cc3ccccc3)NC(=O)[C@H](C)NC(=O)[C@H](CCC(N)=O)NC(=O)[C@H](Cc3cccc(C(=O)O)c3)NC(=O)[C@H](CC(=O)O)NC1=O)NC(=O)[C@H](CC(C)(C)C)NC(=O)[C@H](CC(=O)O)NC2=O (stereo partly drawn) [I-2057, Ac-PL3-Asp-Npg-B5-Asp-3COOHF-Gln-Ala-Phe-Leu-PyrS2-2F3MeF-BztA-Ala-NH2]
[3]
  IC50: 17 nM
[2]; DLD1 4%
  IC50: 4000 nM
COLO320DM cells
  IC50: > 20000 nM

## CC(=O)N1CCN(C(=O)CC[C@@H]2NC(=O)[C@H](Cc3cccc(C(=O)O)c3)NC(=O)[C@H](CC(=O)O)NC(=O)C3(CCCC=CCCCOC(=O)N4CC[C@@](C(=O)N[C@@H](Cc5ccccc5C(F)(F)F)C(=O)N[C@@H](Cc5csc6ccccc56)C(=O)N[C@@H](C)C(N)=O)(C4)NC(=O)[C@H](CC(C)C)NC(=O)[C@H](Cc4ccccc4)NC(=O)[C@H](C)NC2=O)CCCC=CC[C@]2(CCCN2C(C)=O)C(=O)N[C@@H](CC(=O)O)C(=O)N[C@@H](CC(C)(C)C)C(=O)N3)CC1 (stereo partly drawn) [I-2319, Ac-PL3-Asp-Npg-B5-Asp-3COOHF-[AcPpz]GlnR-Ala-Phe-Leu-PyrS2-2F3MeF-BztA-Ala-NH2]
[3]
  IC50: 5 nM
[1]; [5]
  IC50: 1 µM
[2]; [4]
  IC50: 1700 nM
COLO320DM cells; absolute IC50
  IC50: > 20000 nM

## CC(=O)N1CCC[C@]12CC=CCCCC1(CCCC=CCCCOC(=O)N3CC[C@@](C(=O)N[C@@H](Cc4ccccc4C(F)(F)F)C(=O)N[C@@H](Cc4csc5ccccc45)C(=O)N[C@@H](CO)C(N)=O)(C3)NC(=O)[C@H](CC(C)C)NC(=O)[C@H](Cc3ccccc3)NC(=O)[C@H](C)NC(=O)[C@H](C)NC(=O)[C@H](Cn3cc(CC(C)(C)C(=O)O)nn3)NC(=O)[C@H](CC(=O)O)NC1=O)NC(=O)[C@H](CC(C)(C)C)NC(=O)[C@H](CC(=O)O)NC2=O (stereo partly drawn) [I-2372, Ac-PL3-Asp-Npg-B5-Asp-[CH2CMe2CO2H]TriAzDap-Ala-Ala-Phe-Leu-PyrS2-2F3MeF-BztA-Ser-NH2]
[3]
  IC50: 5 nM
[1]; [5]
  IC50: 2.6 µM
[2]; [4]
  IC50: 2100 nM
COLO320DM cells; absolute IC50
  IC50: 7000 nM

## CC(=O)N1CCC[C@]12CC=CCCCC1(CCCC=CCCCOC(=O)N3CC[C@@](C(=O)N[C@@H](Cc4ccccc4C(F)(F)F)C(=O)N[C@@H](Cc4csc5ccccc45)C(=O)N[C@@H](CCC(N)=O)C(=O)N[C@@H](CC(C)C)C(=O)N[C@@H](Cc4ccccc4)C(N)=O)(C3)NC(=O)[C@H](CC(C)C)NC(=O)[C@H](Cc3ccccc3)NC(=O)[C@H](C)NC(=O)[C@H](C)NC(=O)[C@H](Cc3cccc(C(=O)O)c3)NC(=O)[C@H](CC(=O)O)NC1=O)NC(=O)[C@H](CC(C)(C)C)NC(=O)[C@H](CC(=O)O)NC2=O (stereo partly drawn) [I-2381, Ac-PL3-Asp-Npg-B5-Asp-3COOHF-Ala-Ala-Phe-Leu-PyrS2-2F3MeF-BztA-Gln-Leu-Phe-NH2]
[3]
  IC50: 1470 nM
[1]; [5]
  IC50: 2.1 µM
[2]; [4]
  IC50: 1100 nM
COLO320DM cells; absolute IC50
  IC50: > 20000 nM

## CC(=O)N1CCC[C@]12CC=CCCCC1(CCCC=CCCCOC(=O)N3CC[C@@](C(=O)N[C@@H](Cc4ccccc4C(F)(F)F)C(=O)N[C@@H](Cc4csc5ccccc45)C(=O)N[C@@H](CCC(N)=O)C(=O)N[C@@H](CC(C)C)C(=O)N[C@@H](Cc4c[nH]c5ccccc45)C(N)=O)(C3)NC(=O)[C@H](CC(C)C)NC(=O)[C@H](Cc3ccccc3)NC(=O)[C@H](C)NC(=O)[C@H](C)NC(=O)[C@H](Cc3cccc(C(=O)O)c3)NC(=O)[C@H](CC(=O)O)NC1=O)NC(=O)[C@H](CC(C)(C)C)NC(=O)[C@H](CC(=O)O)NC2=O (stereo partly drawn) [I-2394, Ac-PL3-Asp-Npg-B5-Asp-3COOHF-Ala-Ala-Phe-Leu-PyrS2-2F3MeF-BztA-Gln-Leu-Trp-NH2]
[3]
  IC50: 535 nM
[1]; [5]
  IC50: 2.2 µM
[2]; [4]
  IC50: 700 nM
COLO320DM cells; absolute IC50
  IC50: > 20000 nM

## CC[C@@H]1NC(=O)[C@H](Cc2ccccc2)NC(=O)[C@H](C)NC(=O)C(C)(C)NC(=O)[C@H](Cc2cccc(C(=O)O)c2)NC(=O)[C@H](CC(=O)O)NC(=O)C2(CCCC=CCCCOC(=O)N3CC[C@@](C(=O)N[C@@H](Cc4ccccc4C(F)(F)F)C(=O)N[C@@H](Cc4csc5ccccc45)C(=O)N[C@@H](CCC(=O)N(C)C)C(=O)N[C@@H](C)C(N)=O)(C3)NC1=O)CCCC=CC[C@]1(CCCN1C(C)=O)C(=O)N[C@@H](CC(=O)O)C(=O)N[C@@H](CC(C)(C)C)C(=O)N2 (stereo partly drawn) [I-2468, Ac-PL3-Asp-Npg-B5-Asp-3COOHF-Aib-Ala-Phe-Abu-PyrS2-2F3MeF-BztA-Me2Gln-Ala-NH2]
[3]
  IC50: 38 nM
[1]; [5]
  IC50: 6.2 µM
[2]; [4]
  IC50: 6400 nM
COLO320DM cells; absolute IC50
  IC50: > 20000 nM
